Assay results as given in patent US20220402862A1 (Intellia Therapeutics, Inc., priority 2019, published 2022).

How the values were obtained:
[1] = RNA encapsulation efficiency of LNPs (Ribogreen fluorescence assay); type: physicochemical; conditions: LNP, sg:mRNA 1:1, N/P about 6, amine lipid/DSPC/cholesterol/PEG-2k-DMG 50/9/38/3; Table 2, Experiments 2-20
In short: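 Encapsulation efficiency is (Total RNA − Free RNA)/Total RNA. Free RNA was quantified by RiboGreen fluorescence (488/525 nm, ~10 min, RT, dark) in plain TE buffer; total RNA was quantified after LNP lysis with 0.2% Triton X-100, both against RNA standard curves.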

[2] = Dynamic light scattering of LNPs: Z-average diameter, number average diameter, PDI; type: physicochemical; conditions: LNP, sg:mRNA 1:1, N/P about 6, 50/9/38/3; Table 2, Experiments 2-20
In short: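 Values reported are the Z-average (intensity-weighted mean size), the number-average diameter and the PDI (spread of sizes, 0 = fully uniform). All three came from dynamic light scattering of LNP preparations after dilution in PBS.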

Transthyretin (TTR) = experiment: Serum TTR ELISA in mice after LNP dosing; type: in vivo, CD-1 female mice; conditions: guide G282 experiments; for Serum TTR % TSS: mouse serum TTR relative to TSS control; for Serum TTR: mouse serum, ELISA
Experimental: CD-1 female mice ranging from 6-10 weeks of age were used in each study. Animals were weighed and grouped according to body weight for preparing dosing solutions based on group average weight. LNPs were dosed via the lateral tail vein in a volume of 0.2 mL per animal (approximately 10 mL per kilogram body weight). The animals were periodically observed for adverse effects for at least 24 hours post dose. For studies measuring in vivo editing in liver, CD-1 female mice were dosed at 0.1 mg/kg unless otherwise noted. Animals were euthanized at 6 or 7 days by ex sanguination via cardiac puncture under isoflurane anesthesia. Liver tissue was collected from each animal for DNA extraction and analysis. Blood was collected into serum separator tubes or into tubes containing buffered sodium citrate for plasma as described herein. Cohorts of mice were measured for editing by Next-Generation Sequencing (NGS).
Blood was collected and the serum was isolated as indicated. The total mouse TTR serum levels were determined using a Mouse Prealbumin (Transthyretin) ELISA Kit (Aviva Systems Biology, Cat. OKIA00111). Briefly, sera were serial diluted with kit sample diluent to a final dilution of 10,000-fold for 0.1 mg/kg dose and final dilutions of 10,000-fold and of 2,500-fold for 0.3 mg/kg. This diluted sample was then added to the ELISA plates and the assay was carried out according to the manufacturer's directions.

[3] = pKa measurement of unformulated amine lipid (fluorescence, method of Jayaraman et al.); type: physicochemical; conditions: 100 μM in 0.1 M phosphate buffer, pH 2.0-12.0
Experimental: The pKa of each amine lipid was determined according to the method in Jayaraman, et al. (Angewandte Chemie, 2012) with the following adaptations. […] Lipid was diluted to 100 μM in 0.1 M phosphate buffer (Boston Bioproducts) where the pH ranged from 2.0-12.0. Fluorescence intensity was measured using excitation and emission wavelengths of 321 nm and 448 nm.

| Encapsulation (%) [1] [%] | Number mean (nm) [2] [nm] | PDI [2] | Z-avg (nm) [2] [nm] | pKa [3] | Structure (SMILES) | Serum TTR % TSS (Transthyretin (TTR)) [%] | Serum TTR (Transthyretin (TTR)) [µg/mL] |
| --- | --- | --- | --- | --- | --- | --- | --- |
| 96 | 74.58 | 0.019 | 91.5 | 7.17 | CCCCC/C=C\C/C=C\CCCCCCCC(=O)OCC(COC(=O)CCC(OCCCCCCCC)OCCCCCCCC)COC(=O)NCC1CCCCN1CC (stereo not drawn) [Compound 38, 3-((4,4-bis(octyloxy)butanoyl)oxy)-2-(((((1-ethylpiperidin-2-yl)methyl)carbamoyl)oxy)methyl)propyl (9Z,12Z)-octadeca-9,12-dienoate] | 60 | 481 |
| 97 | 64.79 | 0.024 | 79.81 | 7.34 | CCCCC/C=C\C/C=C\CCCCCCCC(=O)OCC(COC(=O)CCC(OCCCCCCCC)OCCCCCCCC)COC(=O)NCC1CCCN1C (stereo not drawn) [Compound 39, 3-((4,4-bis(octyloxy)butanoyl)oxy)-2-(((((1-methylpyrrolidin-2-yl)methyl)carbamoyl)oxy)methyl)propyl (9Z,12Z)-octadeca-9,12-dienoate] | 82 | 656 |
| 98 | 54.1 | 0.074 | 74.83 | 7.82 | CCCCC/C=C\C/C=C\CCCCCCCC(=O)OCC(COC(=O)CCC(OCCCCCCCC)OCCCCCCCC)COC(=O)NC1CCN(CC)C1 (stereo not drawn) [Compound 41, 3-((4,4-bis(octyloxy)butanoyl)oxy)-2-((((1-ethylpyrrolidin-3-yl)carbamoyl)oxy)methyl)propyl (9Z,12Z)-octadeca-9,12-dienoate] | 95 | 758 |
| 99 | 58.66 | 0.027 | 74.03 | 6.9 | CCCCC/C=C\C/C=C\CCCCCCCC(=O)OCC(COC(=O)CCC(OCCCCCCCC)OCCCCCCCC)COC(=O)NC1CCCN(C)C1 (stereo not drawn) [Compound 42, 3-((4,4-bis(octyloxy)butanoyl)oxy)-2-((((1-methylpiperidin-3-yl)carbamoyl)oxy)methyl)propyl (9Z,12Z)-octadeca-9,12-dienoate] | 81 | 902 |
| 91 | 64.78 | 0.025 | 81.19 | 6.1 | CCCCC/C=C\C/C=C\CCCCCCCC(=O)OCC(COC(=O)CCC(OCCCCCCCC)OCCCCCCCC)COC(=O)NC(C)CN(CC)CC (stereo not drawn) [Compound 44, 3-((4,4-bis(octyloxy)butanoyl)oxy)-2-((((1-(diethylamino)propan-2-yl)carbamoyl)oxy)methyl)propyl (9Z,12Z)-octadeca-9,12-dienoate] | 82 | 910 |
| 98 | 69.23 | 0.007 | 82.93 | 7.3 | CCCCC/C=C\C/C=C\CCCCCCCC(=O)OCC(COC(=O)CCC(OCCCCCCCC)OCCCCCCCC)COC(=O)NC(C)CN(C)C (stereo not drawn) [Compound 45, 3-((4,4-bis(octyloxy)butanoyl)oxy)-2-((((1-(dimethylamino)propan-2-yl)carbamoyl)oxy)methyl)propyl (9Z,12Z)-octadeca-9,12-dienoate] | 98 | 1096 |
| 97 | 40.95 | 0.086 | 58.93 | 5.9 | CCCCC/C=C\C/C=C\CCCCCCCC(=O)OCC(COC(=O)CCC(OCCCCCCCC)OCCCCCCCC)COC(=O)N1CCN(C)CC1 (stereo not drawn) [Compound 47, 3-((4,4-bis(octyloxy)butanoyl)oxy)-2-((((9Z,12Z)-octadeca-9,12-dienoyl)oxy)methyl)propyl 4-methylpiperazine-1-carboxylate] | 96 | 1075 |
| 97 | 45.32 | 0.085 | 64.68 | 5.3 | CCCCC/C=C\C/C=C\CCCCCCCC(=O)OCC(COC(=O)CCC(OCCCCCCCC)OCCCCCCCC)COC(=O)N1CCN(CC)CC1 (stereo not drawn) [Compound 48, 3-((4,4-bis(octyloxy)butanoyl)oxy)-2-((((9Z,12Z)-octadeca-9,12-dienoyl)oxy)methyl)propyl 4-ethylpiperazine-1-carboxylate] | 82 | 915 |

The remaining lines, values behind:

| Structure (SMILES) | Encapsulation (%) [1] [%] | Number mean (nm) [2] [nm] | PDI [2] | Z-avg (nm) [2] [nm] | pKa [3] | Serum TTR % TSS (Transthyretin (TTR)) [%] | Serum TTR (Transthyretin (TTR)) [µg/mL] |
| --- | --- | --- | --- | --- | --- | --- | --- |
| CCCCC/C=C\C/C=C\CCCCCCCC(=O)OCC(COC(=O)CCCCN(C)C)COC(=O)CCC(OCCCCCCCC)OCCCCCCCC (stereo not drawn) [Compound 25] | 99 | 61 | 0.080 | 87 | 7.65 | 112 | 1013 |
| CCCCC/C=C\C/C=C\CCCCCCCC(=O)OCC(COC(=O)CCCN(C)C)COC(=O)CCC(OCCCCCCCC)OCCCCCCCC (stereo not drawn) [Compound 26, 3-((4,4-bis(octyloxy)butanoyl)oxy)-2-(((4-(dimethylamino)butanoyl)oxy)methyl)propyl (9Z,12Z)-octadeca-9,12-dienoate] | 98 | 73 | 0.000 | 88 | 7.39 | 112 | 1008 |
| CCCCC/C=C\C/C=C\CCCCCCCC(=O)OCC(COC(=O)CCC(OCCCCCCCC)OCCCCCCCC)COC(=O)CCN(CC)CC (stereo not drawn) [Compound 27, 3-((4,4-bis(octyloxy)butanoyl)oxy)-2-(((3-(diethylamino)propanoyl)oxy)methyl)propyl (9Z,12Z)-octadeca-9,12-dienoate] | 97 | 45 | 0.100 | 66 | 5.35 | 93 | 841 |
| CCCCC/C=C\C/C=C\CCCCCCCC(=O)OCC(COC(=O)CCCCN(CC)CC)COC(=O)CCC(OCCCCCCCC)OCCCCCCCC (stereo not drawn) [Compound 28, 3-((4,4-bis(octyloxy)butanoyl)oxy)-2-(((5-(diethylamino)pentanoyl)oxy)methyl)propyl (9Z,12Z)-octadeca-9,12-dienoate] | 98 | 68 | 0.010 | 83 | 7.3 | 73 | 661 |
| CCCCC/C=C\C/C=C\CCCCCCCC(=O)OCC(COC(=O)CCC(OCCCCCCCC)OCCCCCCCC)COC(=O)C1(C)CCN(C)CC1 (stereo not drawn) [Compound 32, 3-((4,4-bis(octyloxy)butanoyl)oxy)-2-((((9Z,12Z)-octadeca-9,12-dienoyl)oxy)methyl)propyl 1,4-dimethylpiperidine-4-carboxylate] | 99 | 61 | 0.040 | 77 | 7.32 | 43 | 388 |
| CCCCC/C=C\C/C=C\CCCCCCCC(=O)OCC(COC(=O)CCC(OCCCCCCCC)OCCCCCCCC)COC(=O)NC1CCCN(CC)C1 (stereo not drawn) [Compound 36, 3-((4,4-bis(octyloxy)butanoyl)oxy)-2-((((1-ethylpiperidin-3-yl)carbamoyl)oxy)methyl)propyl (9Z,12Z)-octadeca-9,12-dienoate] | 98 | 59.48 | 0.024 | 73.71 | 6.58 | 99 | 795 |
| CCCCC/C=C\C/C=C\CCCCCCCC(=O)OCC(COC(=O)CCC(OCCCCCCCC)OCCCCCCCC)COC(=O)NC1CCN(CC)CC1 (stereo not drawn) [Compound 37, 3-((4,4-bis(octyloxy)butanoyl)oxy)-2-((((1-ethylpiperidin-4-yl)carbamoyl)oxy)methyl)propyl (9Z,12Z)-octadeca-9,12-dienoate] | 100 | 44.73 | 0.091 | 65.01 | 7.84 | 77 | 617 |
